pIC50: −log10 of the molar value.
System: KRAS PDC multicell spheroid viability
Assay: Anticancer human tumor 825966-067-R-J1-PDC patient-derived colon carcinoma cell line growth inhibition [KRAS2]
Settings: for viability, T/C: stronger effect = lower value
Source text: Multicellular complex tumor spheroid response to RAS pathway inhibitors in combination with a targeted agents in patient-derived cell lines with oncogenic KRAS variants from multiple cancer types
A high-throughput screen of multi-cell type tumor spheroids was designed to identify active combinations of targeted small molecules and KRAS pathway inhibitors. Complex spheroids include a stromal component modeled by human endothelial cells (HUVEC) and fibroblasts modeled by human mesenchymal stem cells (MSCs). The concentration ranges selected for each drug and investigational agent were based upon clinically achievable concentrations if the clinical Cmax of the agent was known.
Compounds. The drugs and investigational agents: BI-3406 (NSC825286), BAY-293 (NSC824723), batoprotafib (TNO155; NSC825523), sotorasib (AMG 510; NSC818433), MRTX1257 (NSC819558), elimusertib (BAY 1895344; NSC800525), molibresib (GSK525762; NSC774829), temuterkib (LY3214996; NSC803410), venetoclax (NSC766270), alisertib (NSC759677), olaparib (NSC753686), talazoparib (NSC767125), erdafitinib (NSC781556), ipatasertib (NSC767898), cabozantinib (NSC761068), nintedanib (NSC756659), abemaciclib (NSC768073), docetaxel (NSC628503), trametinib (NSC758246), and sapanisertib (NSC764658) were obtained from the National Cancer Institute (NCI) Developmental Therapeutics Program Chemical Repository. The FDA-approved anticancer drug set is available from the Developmental Therapeutics Program. […] The stock solutions were prepared in dimethyl sulfoxide (DMSO, Sigma-Aldrich, St. Louis, MO, cat. D2650) at 800-fold the tested concentration and stored at -70 degrees C prior to their use. All drugs and investigational agents were tested over a range starting from a high concentration at or near the clinical Cmax and decreasing in half-log increments. If the clinical Cmax for an agent had not been determined, the highest concentration tested was 10 microM.
Cell Culture. All cells were maintained in an incubator at 37 degrees C and 5% CO2 with 95% humidity. The PDC lines were cultured according to standard operating procedures established by the NCI PDMR (https://pdmr.cancer.gov/sops/default.htm). Briefly, all PDCs were thawed and cultured in Matrigel-coated flasks prepared with a working solution of 1X Ham's F-12 nutrient mix, without supplementation (Invitrogen, Waltham, MA, cat. 11765054), 100 U/mL penicillin-streptomycin (Invitrogen, cat. 15140122), and 2.5% Matrigel (Corning Inc., Corning, NY, cat. 354248) for the first three passages. All PDCs were cultured in complete DMEM/F-12 media containing advanced DMEM/F-12 (Invitrogen, cat. 12634028), 4.9% defined fetal bovine serum, heat inactivated (HyClone Laboratories Inc., Logan, UT, cat. SH30070.03HI), 389 ng/mL hydrocortisone (Sigma-Aldrich, cat. H4001), 9.7 ng/mL human EGF recombinant protein (Invitrogen, cat. PHG0313), 23.4 microg/mL adenine (Sigma-Aldrich, cat. A2786), 97.3 U/mL penicillin-streptomycin (Invitrogen, cat. 15140122), 1.9 mM L-glutamine (Invitrogen, cat. 25030081), and 9.7 microM Y-27632 dihydrochloride (Tocris Bioscience, Bristol, United Kingdom, cat. 1254). The PDCs were cultured in complete DMEM/F12 media without 9.7 microM Y-27632 dihydrochloride for at least two passages prior to the screen. The established cell line HOP-62 was cultured in RPMI 1640 medium, HEPES (Invitrogen, cat. 22400105) with 10% defined fetal bovine serum (HyClone Laboratories Inc., cat. SH30070.03) and 2 mM L-glutamine (Invitrogen, cat. 25030081). The pooled donor HUVEC were cultured in endothelial cell growth medium 2 (PromoCell, Heidelberg, Germany, cat. C-22011) and the hMSC were cultured in mesenchymal stem cell growth medium 2 (PromoCell, cat. C-28009). For all experiments, HUVEC and hMSC were used at passages </=5, while the malignant cell lines were used at passages </=15. […]

[1] = compound alone, run of 08/19/2021
[2] = compound alone, run of 08/26/2021
[3] = curve of first compound, second compound 0.1 µM
[4] = curve of first compound, second compound 0.316 µM
[5] = curve of first compound, second compound 1 µM
[6] = curve of first compound, second compound 3.16 µM
[7] = second compound 0.1 µM, first compound 0.0316 µM
[8] = second compound 0.1 µM, first compound 0.1 µM
[9] = second compound 0.1 µM, first compound 0.316 µM
[10] = second compound 0.1 µM, first compound 1 µM
[11] = second compound 0.1 µM, first compound 3.16 µM
[12] = second compound 0.1 µM, first compound 10 µM
[13] = second compound 0.316 µM, first compound 0.0316 µM
[14] = second compound 0.316 µM, first compound 0.1 µM
[15] = second compound 0.316 µM, first compound 0.316 µM
[16] = second compound 0.316 µM, first compound 1 µM
[17] = second compound 0.316 µM, first compound 3.16 µM
[18] = second compound 0.316 µM, first compound 10 µM
[19] = second compound 1 µM, first compound 0.0316 µM
[20] = second compound 1 µM, first compound 0.1 µM
[21] = second compound 1 µM, first compound 0.316 µM
[22] = second compound 1 µM, first compound 1 µM
[23] = second compound 1 µM, first compound 3.16 µM
[24] = second compound 1 µM, first compound 10 µM
[25] = second compound 3.16 µM, first compound 0.0316 µM
[26] = second compound 3.16 µM, first compound 0.1 µM
[27] = second compound 3.16 µM, first compound 0.316 µM
[28] = second compound 3.16 µM, first compound 1 µM
[29] = second compound 3.16 µM, first compound 3.16 µM
[30] = second compound 3.16 µM, first compound 10 µM
[31] = curve of first compound, second compound 0.0316 µM
[32] = second compound 0.0316 µM, first compound 0.0316 µM
[33] = second compound 0.0316 µM, first compound 0.1 µM
[34] = second compound 0.0316 µM, first compound 0.316 µM
[35] = second compound 0.0316 µM, first compound 1 µM
[36] = second compound 0.0316 µM, first compound 3.16 µM
[37] = second compound 0.0316 µM, first compound 10 µM
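Also: spheroids exposed to compounds for 7 days.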
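For viability, T/C in this document: 100% = DMSO vehicle control viability.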

SMILES: CNCc1ccccc1-c1csc(C(C)Nc2nc(C)nc3cc(OC)c(OC)cc23)c1 (stereo not drawn)
- viability, T/C (compound 10 µM): 0.22% [middle of 14 runs]
- IC50 [1]: 2.3 µM [middle of 6 runs]
- IC50 [2]: 3.18 µM [middle of 5 runs]

SMILES: COc1cc(OC)cc(N(CCNC(C)C)c2ccc3ncc(-c4cnn(C)c4)nc3c2)c1
- viability, T/C (compound 0.0316 µM): 92.5% [middle of 5 runs]
- viability, T/C (compound 0.1 µM): 89.2% [middle of 5 runs]
- viability, T/C (compound 0.316 µM): 91.1% [middle of 5 runs]
- viability, T/C (compound 1 µM): 95.6% [middle of 5 runs]

SMILES: CC(=O)OC12COC1CC(O)C1(C)C(=O)C(O)C3=C(C)C(OC(=O)C(O)C(NC(=O)OC(C)(C)C)c4ccccc4)CC(O)(C(OC(=O)c4ccccc4)C21)C3(C)C (stereo not drawn)
- viability, T/C (compound 0.01 µM): 20.3% [middle of 5 runs]
- viability, T/C (compound 0.0316 µM): 23.2% [middle of 5 runs]
- viability, T/C (compound 0.1 µM): 18.5% [middle of 5 runs]
- viability, T/C (compound 0.316 µM): 23.7% [middle of 5 runs]
- viability, T/C (compound 1 µM): 28.8% [middle of 5 runs]
- viability, T/C (compound 3.16 µM): 36.5% [middle of 5 runs]
- pIC50 (curve of compound): > 8.00

SMILES: COc1cc(Nc2ncc3c(n2)-c2ccc(Cl)cc2C(c2c(F)cccc2OC)=NC3)ccc1C(=O)O + C=CC(=O)N1CCN(c2nc(=O)n(-c3c(C)ccnc3C(C)C)c3nc(-c4c(O)cccc4F)c(F)cc23)C(C)C1
- pIC50 [3]: < 5.00
- pIC50 [4]: < 5.00
- pIC50 [5]: < 5.00
- pIC50 [6]: < 5.00
- pIC50 (curve of first compound, second compound 10 µM): < 5.00
- viability, T/C [7]: 144%
- viability, T/C [8]: 117%
- viability, T/C [9]: 141%
- viability, T/C [10]: 140%
- viability, T/C [11]: 138%
- viability, T/C [12]: 133%
- viability, T/C [13]: 116%
- viability, T/C [14]: 107%
- viability, T/C [15]: 135%
- viability, T/C [16]: 140%
- viability, T/C [17]: 154%
- viability, T/C [18]: 134%
- viability, T/C [19]: 88.9%
- viability, T/C [20]: 107%
- viability, T/C [21]: 96%
- viability, T/C [22]: 127%
- viability, T/C [23]: 123%
- viability, T/C [24]: 118%
- viability, T/C [25]: 104%
- viability, T/C [26]: 93.5%
- viability, T/C [27]: 142%
- viability, T/C [28]: 118%
- viability, T/C [29]: 144%
- viability, T/C [30]: 103%
- viability, T/C (second compound 10 µM, first compound 0.0316 µM): 83.3%
- viability, T/C (second compound 10 µM, first compound 0.1 µM): 66%
- viability, T/C (second compound 10 µM, first compound 0.316 µM): 97.7%
- viability, T/C (second compound 10 µM, first compound 1 µM): 79.5%
- viability, T/C (second compound 10 µM, first compound 3.16 µM): 116%
- viability, T/C (second compound 10 µM, first compound 10 µM): 90.5%

SMILES: C=CC(=O)N1CCN(c2nc(=O)n(-c3c(C)ccnc3C(C)C)c3nc(-c4c(O)cccc4F)c(F)cc23)C(C)C1 (stereo not drawn)
- pIC50 [1]: < 5.00
- pIC50 [2]: < 5.00
- pIC50 (compound alone, run of 09/02/2021): < 5.00

SMILES: CCNC(=O)CC1N=C(c2ccc(Cl)cc2)c2cc(OC)ccc2-n2c(C)nnc21 (stereo not drawn) + C=CC(=O)N1CCN(c2nc(OCC3CCCN3C)nc3c2CCN(c2cccc4cccc(C)c24)C3)CC1CC#N
- pIC50 [31]: < 5.00
- pIC50 [3]: < 5.00
- pIC50 [4]: < 5.00
- pIC50 [5]: < 5.00
- pIC50 [6]: 6.14
- viability, T/C [32]: 80.1%
- viability, T/C [33]: 112%
- viability, T/C [34]: 118%
- viability, T/C [35]: 115%
- viability, T/C [36]: 82.2%
- viability, T/C [37]: 75.9%
- viability, T/C [7]: 79.5%
- viability, T/C [8]: 112%
- viability, T/C [9]: 113%
- viability, T/C [10]: 89.5%
- viability, T/C [11]: 79.4%
- viability, T/C [12]: 75.9%
- viability, T/C [13]: 90%
- viability, T/C [14]: 119%
- viability, T/C [15]: 121%
- viability, T/C [16]: 118%
- viability, T/C [17]: 69.7%
- viability, T/C [18]: 72.4%
- viability, T/C [19]: 91.8%
- viability, T/C [20]: 110%
- viability, T/C [21]: 126%
- viability, T/C [22]: 85.8%
- viability, T/C [23]: 44.4%
- viability, T/C [24]: 59.5%
- viability, T/C [25]: 109%
- viability, T/C [26]: 125%
- viability, T/C [27]: 87.6%
- viability, T/C [28]: 20.3%
- viability, T/C [29]: 55.5%
- viability, T/C [30]: 30.7%

SMILES: Cn1nccc1Nc1nccc(-c2cc3c(s2)C(C)(C)N(CCN2CCOCC2)C3=O)n1
- viability, T/C (compound 0.0316 µM): 90.9% [middle of 5 runs]
- viability, T/C (compound 0.1 µM): 94.8% [middle of 5 runs]
- viability, T/C (compound 0.316 µM): 109% [middle of 5 runs]
- viability, T/C (compound 3.16 µM): 96% [middle of 5 runs]
- viability, T/C (compound 10 µM): 81.8% [middle of 5 runs]
- pIC50 (curve of compound): < 5.00

SMILES: COc1cc2nccc(Oc3ccc(NC(=O)C4(C(=O)Nc5ccc(F)cc5)CC4)cc3)c2cc1OC + C=CC(=O)N1CCN(c2nc(OCC3CCCN3C)nc3c2CCN(c2cccc4cccc(C)c24)C3)CC1CC#N
- pIC50 [31]: 5.79
- pIC50 [3]: 5.74
- pIC50 [4]: 5.78
- pIC50 [5]: 5.80
- pIC50 [6]: 6.16
- viability, T/C [32]: 96.4%
- viability, T/C [33]: 106%
- viability, T/C [34]: 84%
- viability, T/C [35]: 83.1%
- viability, T/C [36]: 4.36%
- viability, T/C [37]: 8.53%
- viability, T/C [7]: 117%
- viability, T/C [8]: 97.3%
- viability, T/C [9]: 74.1%
- viability, T/C [10]: 86.3%
- viability, T/C [11]: 15.3%
- viability, T/C [12]: 7.78%
- viability, T/C [13]: 122%
- viability, T/C [14]: 91.6%
- viability, T/C [15]: 107%
- viability, T/C [16]: 79.7%
- viability, T/C [17]: 12%
- viability, T/C [18]: 7.79%
- viability, T/C [19]: 103%
- viability, T/C [20]: 78.7%
- viability, T/C [21]: 78.1%
- viability, T/C [22]: 81.3%
- viability, T/C [23]: 3.62%
- viability, T/C [24]: 2%
- viability, T/C [25]: 86.1%
- viability, T/C [26]: 83.6%
- viability, T/C [27]: 108%
- viability, T/C [28]: 29.5%
- viability, T/C [29]: 0.34%
- viability, T/C [30]: 0.17%
